Results taken from article PMC7091493 (Journal of medicinal chemistry, 2019).

Key:
Type in all cases: biochemical
Mtb20S = Mtb20S (Mycobacterium tuberculosis, UniProt P9WHT9); details: for inhibitory potency against Mtb20S (in words): qualitative statement, comparison as stated in the sentence
human c-20S β5c = human c-20S β5c (Homo sapiens, UniProt P20618+P28074); details: qualitative statement; comparison as stated in the sentence
human i-20S β5i = human i-20S β5i (Homo sapiens, UniProt P20618+P28062); assay: Human immunoproteasome inhibition assay; details: for inhibitory potency against human i-20S (in words): qualitative statement, comparison as stated in the sentence

Mtb20S, sequence (P9WHT9 58-291): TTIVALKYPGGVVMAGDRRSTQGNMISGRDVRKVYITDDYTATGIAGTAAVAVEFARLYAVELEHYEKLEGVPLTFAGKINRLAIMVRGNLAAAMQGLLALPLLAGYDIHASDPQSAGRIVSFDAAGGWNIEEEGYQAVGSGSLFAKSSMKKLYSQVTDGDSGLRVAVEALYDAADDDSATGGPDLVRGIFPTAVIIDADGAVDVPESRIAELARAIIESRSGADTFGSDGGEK

Cc1cc(C(=O)N[C@@H](CC(=O)N2CCC[C@@H]2c2ccccc2)C(=O)N[C@@H](C)C(=O)NCc2ccc(F)cc2F)no1 [A86]
improvement in IC50 values against Mtb20S (Mtb20S; relative to A85): 2.4 fold

COc1ccccc1CNC(=O)[C@H](C)NC(=O)[C@H](CC(=O)N1CCC[C@@H]1c1ccccc1)NC(=O)c1cc(C)on1 [A120]
inhibitory potency against human c-20S (in words) (human c-20S β5c): reduced | inhibitory potency against Mtb20S (in words) (Mtb20S): reduced | inhibitory potency against human i-20S (in words) (human i-20S β5i): reduced

Cc1cc(C(=O)N[C@@H](CC(=O)N2CCCC[C@@H]2C)C(=O)N[C@@H](C)c2ncc(-c3ccccc3)[nH]2)no1 [B1]
inhibitory potency against Mtb20S (in words) (Mtb20S): modest inhibitory activity

Cc1cc(C(=O)N[C@@H](CC(=O)N2CCC[C@@H]2c2ccccc2)C(=O)N[C@@H](C)c2ncc(-c3ccc(F)cc3F)[nH]2)no1 [B37]
selectivity for Mtb20S over both c-20S and i-20S (in words) (Mtb20S): markedly selective | inhibitory potency against Mtb20S (in words) (Mtb20S): highly potent

Cc1cc(C(=O)N[C@@H](CC(=O)N2CCC[C@@H]2c2ccccc2)C(=O)N[C@@H](C)c2ncc(-c3ccccc3F)[nH]2)no1 [B6]
selectivity for Mtb20S over both c-20S and i-20S (in words) (Mtb20S): markedly selective | inhibitory potency against Mtb20S (in words) (Mtb20S): highly potent

Cc1cc(C(=O)N[C@@H](CC(=O)N2CCC[C@@H]2c2ccccc2)C(=O)N[C@@H](C)c2ncc(-c3ccccc3)[nH]2)no1 [B36]
selectivity for Mtb20S over both c-20S and i-20S (in words) (Mtb20S): markedly selective | inhibitory potency against Mtb20S (in words) (Mtb20S): highly potent

Cc1cc(C(=O)N[C@@H](CC(=O)N2CCC[C@@H]2c2ccccc2)C(=O)N[C@@H](C)C(=O)NCc2c(F)cccc2F)no1 [A119]
inhibitory potency against Mtb20S (in words) (Mtb20S): maintained | inhibitory potency against human i-20S (in words) (human i-20S β5i): reduced

Cc1cc(C(=O)N[C@@H](CC(=O)N2CCCC[C@@H]2C)C(=O)N[C@@H](C)C(=O)NCc2ccc(F)cc2F)no1 [A85]
inhibitory potency against Mtb20S (in words) (Mtb20S): maintaining potency | selectivity for Mtb20S over i-20S β5i (human i-20S β5i): 4 fold
